Results published in patent US9428469B2, “Antiviral compounds” (priority 2013, dated 2016).
Structures can show the parent of a compound that is named as a salt.

How the values were obtained:
VSVpp = experiment: microbe, parasite or virus in culture; assay type: cell-based; details: Vesicular stomatitis virus, 72 h, read-out: VSVpp (EC50, μM)
HCVpp GT-1b = experiment: microbe, parasite or virus in culture; assay type: cell-based, Hepatitis C virus (GT1b Con1 strain); details: Hepatitis C virus, GT1B, 72 h, read-out: HCVpp GT-1b (EC50, μM)

| Structure (SMILES) | EC50 (VSVpp) | EC50 (HCVpp GT-1b) |
| --- | --- | --- |
| FC(F)(F)c1ccc(CNc2nc(Nc3cc(Cl)c(Br)c(C(F)(F)F)c3)n[nH]2)cc1 [Compound 1, N3-(4-bromo-3-chloro-5-(trifluoromethyl)phenyl)-N5-(4-(trifluoromethyl)benzyl)-1H-1,2,4-triazole-3,5-diamine] | 13.7 µM | 1.35 µM |
| Clc1cc(Cl)cc(Nc2n[nH]c(NCc3ccco3)n2)c1 [Compound 2, N3-(3,5-dichlorophenyl)-N5-(furan-2-ylmethyl)-1H-1,2,4-triazole-3,5-diamine] | 11.9 µM | 2.58 µM |
| Cc1ccc(CNc2nc(Nc3cc(Cl)cc(Cl)c3)n[nH]2)o1 [Compound 3, N3-(3,5-dichlorophenyl)-N5-((5-methylfuran-2-yl)methyl)-1H-1,2,4-triazole-3,5-diamine] | 19.3 µM | 3.27 µM |
| FC(F)(F)c1ccc(Cl)cc1CNc1nc(Nc2cc(Cl)cc(Cl)c2)n[nH]1 [Compound 4, N5-(5-chloro-2-(trifluoromethyl)benzyl)-N3-(3,5-dichlorophenyl)-1H-1,2,4-triazole-3,5-diamine] | 13.2 µM | 4.66 µM |
| Clc1ccc(CNc2nc(Nc3cc(Cl)cc(Cl)c3)n[nH]2)nc1 [Compound 5, N5-((5-chloropyridin-2-yl)methyl)-N3-(3,5-dichlorophenyl)-1H-1,2,4-triazole-3,5-diamine] | 33.6 µM | 1.57 µM |
| CC(C)(C)OC(=O)Nc1ccc(CNc2nc(Nc3cc(Cl)cc(Cl)c3)n[nH]2)cn1 [Compound 6, Tert-butyl 5-((3-(3,5-dichlorophenylamino)-1H-1,2,4-triazol-5-ylamino)methyl)pyridin-2-ylcarbamate] | 14.5 µM | 7.81 µM |
| CC(C)(C)OC(=O)c1ccc(CNc2nc(Nc3cc(Cl)cc(Cl)c3)n[nH]2)cc1 [Compound 7, tert-butyl 4-((3-(3,5-dichlorophenylamino)-1H-1,2,4-triazol-5-ylamino)methyl)benzoate] | 33.3 µM | 0.414 µM |
| CC(C)(C)OC(=O)c1ccccc1CNc1nc(Nc2cc(Cl)cc(Cl)c2)n[nH]1 [Compound 8, tert-butyl 2-((3-(3,5-dichlorophenylamino)-1H-1,2,4-triazol-5-ylamino)methyl)benzoate] | 22 µM | 9.99 µM |
| Clc1cc(Cl)cc(Nc2n[nH]c(NCc3ccccc3)n2)c1 [Compound 9, N5-benzyl-N3-(3,5-dichlorophenyl)-1H-1,2,4-triazole-3,5-diamine] | 22.8 µM | 1.72 µM |
| Nc1ccc(CNc2nc(Nc3cc(Cl)cc(Cl)c3)n[nH]2)cn1 [Compound 10, N5-((6-aminopyridin-3-yl)methyl)-N3-(3,5-dichlorophenyl)-1H-1,2,4-triazole-3,5-diamine] | 100 µM | 58.3 µM |
| Cn1cc(CNc2nc(Nc3cc(Cl)cc(Cl)c3)n[nH]2)cn1 [Compound 11, N3-(3,5-dichlorophenyl)-N5-((1-methyl-1H-pyrazol-4-yl)methyl)-1H-1,2,4-triazole-3,5-diamine] | 25.7 µM | 23.9 µM |
| O=C(O)c1ccc(CNc2nc(Nc3cc(Cl)cc(Cl)c3)n[nH]2)cc1 [Compound 12, 4-((3-(3,5-dichlorophenylamino)-1H-1,2,4-triazol-5-ylamino)methyl)benzoic acid; trifluoroacetic acid salt] | 100 µM | 19.5 µM |
| O=C(O)c1cccc(CNc2nc(Nc3cc(Cl)cc(Cl)c3)n[nH]2)c1 [Compound 13, 3-((3-(3,5-dichlorophenylamino)-1H-1,2,4-triazol-5-ylamino)methyl)benzoic acid; trifluoroacetic acid salt] | 78.1 µM | 37.5 µM |
| O=C(O)c1ccccc1CNc1nc(Nc2cc(Cl)cc(Cl)c2)n[nH]1 [Compound 14, 2-((3-(3,5-dichlorophenylamino)-1H-1,2,4-triazol-5-ylamino)methyl)benzoic acid; trifluoroacetic acid salt] | 100 µM | 96 µM |
| CS(=O)(=O)c1ccc(CNc2nc(Nc3cc(Cl)cc(Cl)c3)n[nH]2)cc1 [Compound 15, N3-(3,5-dichlorophenyl)-N5-(4-(methylsulfonyl)benzyl)-1H-1,2,4-triazole-3,5-diamine] | 10 µM | 10 µM |
| N#Cc1ccc(CNc2nc(Nc3cc(Cl)cc(Cl)c3)n[nH]2)cc1 [Compound 16, 4-((3-(3,5-dichlorophenylamino)-1H-1,2,4-triazol-5-ylamino)methyl)benzonitrile] | 10 µM | 3.34 µM |
| CN(C)S(=O)(=O)c1ccc(CNc2nc(Nc3cc(Cl)cc(Cl)c3)n[nH]2)cc1 [Compound 17, 4-((3-(3,5-dichlorophenylamino)-1H-1,2,4-triazol-5-ylamino)methyl)-N,N-dimethylbenzenesulfonamide] | 10 µM | 10 µM |
| FC(F)(F)c1ccc(CNc2nc(Nc3cc(Cl)cc(Cl)c3)n[nH]2)cc1Cl [Compound 19, N5-(3-chloro-4-(trifluoromethyl)benzyl)-N3-(3,5-dichlorophenyl)-1H-1,2,4-triazole-3,5-diamine] | 10 µM | 4.83 µM |
| O=S(=O)(c1ccc(CNc2nc(Nc3cc(Cl)cc(Cl)c3)n[nH]2)cc1)N1CCCC1 [Compound 20, N3-(3,5-dichlorophenyl)-N5-(4-(pyrrolidin-1-ylsulfonyl)benzyl)-1H-1,2,4-triazole-3,5-diamine] | 10 µM | 10 µM |
| O=S(=O)(c1ccc(CNc2nc(Nc3cc(Cl)cc(Cl)c3)n[nH]2)cc1)N1CCOCC1 [Compound 21, N3-(3,5-dichlorophenyl)-N5-(4-(morpholinosulfonyl)benzyl)-1H-1,2,4-triazole-3,5-diamine] | 10 µM | 10 µM |
| N#Cc1c(Cl)cc(Nc2n[nH]c(NCc3ccc(C(F)(F)F)cc3)n2)cc1Cl [Compound 22, 2,6-dichloro-4-(5-(4-(trifluoromethyl)benzylamino)-1H-1,2,4-triazol-3-ylamino)benzonitrile] | 5.3 µM | 0.224 µM |
| CC(C)(C)OC(=O)c1ccc(CNc2nc(Nc3cc(Cl)c(C#N)c(Cl)c3)n[nH]2)cc1 [Compound 23, tert-butyl 4-((3-(3,5-dichloro-4-cyanophenylamino)-1H-1,2,4-triazol-5-ylamino)methyl)benzoate] | 10 µM | 0.029 µM |
| CC(C)S(=O)(=O)c1ccc(-c2c(Cl)cc(Nc3n[nH]c(NCc4ccc(C(=O)OC(C)(C)C)cc4)n3)cc2C(F)(F)F)cc1 [Compound 24, tert-butyl 4-((3-(2-chloro-4′-(isopropylsulfonyl)-6-(trifluoromethyl)biphenyl-4-ylamino)-1H-1,2,4-triazol-5-ylamino)methyl)benzoate] | 6.2 µM | 0.014 µM |
| FC(F)(F)c1ccc(CNc2nc(Nc3cc(Cl)cc(Cl)c3)n[nH]2)cc1 [Compound 25, N*3*-(3,5-Dichloro-phenyl)-N*5*-(4-trifluoromethyl-benzyl)-1H-[1,2,4]triazole-3,5-diamine] | 29.1 µM | 0.046 µM |
| FC(F)(F)c1cccc(CNc2nc(Nc3cc(Cl)cc(Cl)c3)n[nH]2)c1 [Compound 26, N*3*-(3,5-Dichloro-phenyl)-N*5*-(3-trifluoromethyl-benzyl)-1H-[1,2,4]triazole-3,5-diamine] | 30.3 µM | 0.709 µM |
| CS(=O)(=O)N1CCC(Nc2nc(Nc3cc(Cl)cc(Cl)c3)n[nH]2)CC1 [Compound 27, N*3*-(3,5-Dichloro-phenyl)-N*5*-(1-methanesulfonyl-piperidin-4-yl)-1H-[1,2,4]triazole-3,5-diamine] | 42.4 µM | 59.6 µM |
| CC(C)(C)OC(=O)N1CCC(Nc2nc(Nc3cc(Cl)cc(Cl)c3)n[nH]2)CC1 [Compound 28, 4-[5-(3,5-Dichloro-phenylamino)-2H-[1,2,4]triazol-3-ylamino]-piperidine-1-carboxylic acid tert-butyl ester] | 11.1 µM | 6.57 µM |
| Clc1cc(Cl)cc(Nc2n[nH]c(NC3CCNCC3)n2)c1 [Compound 29, N*3*-(3,5-Dichloro-phenyl)-N*5*-piperidin-4-yl-1H-[1,2,4]triazole-3,5-diamine; compound with trifluoro-acetic acid] | 10 µM | 10 µM |
| CC(=O)N1CCC(Nc2nc(Nc3cc(Cl)cc(Cl)c3)n[nH]2)CC1 [Compound 30, 1-{4-[5-(3,5-Dichloro-phenylamino)-2H-[1,2,4]triazol-3-ylamino]-piperidin-1-yl}-ethanone] | 49.6 µM | 95.8 µM |
| Clc1cc(Cl)cc(Nc2n[nH]c(NCc3cncnc3)n2)c1 [Compound 31, N*3*-(3,5-Dichloro-phenyl)-N*5*-pyrimidin-5-ylmethyl-1H-[1,2,4]triazole-3,5-diamine] | 100 µM | 44.3 µM |
